# Test system: phospholipase D1
# Test: PLD activity in HCT116 cells ([3H]phosphatidylbutanol, TLC)
# Type: cell-based, human
# Settings: compound 10 μM, cells without the compound = 100%
# Protocol: To evaluate the inhibitory effect of the compounds according to the present invention on phospholipase D1 activity, experiments were conducted as follows.
# For the analysis of PLD activity in cells, human colon cancer cell line (HCT116) was cultured in a 6-well plate at 37° C. for 24 hours, washed twice with phosphate-buffered saline (PBS), and then replaced with medium containing [^3H]myristate and cultured for 24 hours. After the culture, the cells were washed three times with PBS, treated with 1-butanol, and the drug was added to a final concentration of 10 μM. The cells were trypsinized and suspended, and the amount of [^3H]phosphatidylbutanol produced in the cell suspension was measured and evaluated for PLD activity using thin layer chromatography (TLC), and the results are shown in Table 1 below.
# The Remaining activity % at 10 μM in Table 1 is calculated by setting the amount of [^3H]phosphatidylbutanol produced in cells without the compound as 100% and calculating the amount of [^3H]phosphatidylbutanol produced in cells treated with the compound as a percentage. Therefore, the lower the value of Remaining activity %, the higher the PLD inhibitory activity.
row,Compound,Remaining activity % at 10 μM
1,"O=C(Cc1c[nH]c2ccccc12)Nc1ccc(F)cc1 [Example 1-14, N-(4-fluorophenyl)-2-(1H-indol-3-yl)acetamide]",not active
2,"O=C(Nc1ccc(Cl)c([N+](=O)[O-])c1)c1cc2ccccc2[nH]1 [Example 1-85, N-(4-chloro-3-nitrophenyl)-1H-indole-2-carboxamide]",53.78%
3,"O=C(Nc1ccccc1F)c1cc2cc(F)ccc2[nH]1 [Example 1-97, 5-fluoro-N-(2-fluorophenyl)-1H-indole-2-carboxamide]",not active
4,"O=C(CCCc1c[nH]c2ccccc12)Nc1ccc(F)cc1 [Example 1-75, N-(4-fluorophenyl)-4-(1H-indol-3-yl)butanamide]",not active
5,"COc1ccc(NC(=O)Cc2c[nH]c3ccccc23)cc1OC [Example 1-28, N-(3,4-dimethoxyphenyl)-2-(1H-indol-3-yl)acetamide]",not active
6,"O=C(Cc1c[nH]c2ccccc12)Nc1ccc(F)cn1 [Example 1-22, N-(5-fluoropyridin-2-yl)-2-(1H-indol-3-yl)acetamide]",66.5%
7,"O=C(Nc1ccc(O)c(O)c1)c1c[nH]c2ccccc12 [Example 1-105, N-(3,4-dihydroxyphenyl)-1H-indole-3-carboxamide]",39.17%
8,"O=C(Cc1c[nH]c2ccccc12)NCc1ccc(O)c(O)c1 [Example 1-107, N-(3,4-dihydroxybenzyl)-2-(1H-indol-3-yl)acetamide]",88.12%
9,"COc1ccc(CNC(=O)CCc2c[nH]c3ccccc23)cc1 [Example 1-71, 3-(1H-indol-3-yl)-N-(4-methoxybenzyl)propanamide]",51.45%
10,"O=C(CCc1c[nH]c2ccccc12)Nc1ccc(Cl)c(Cl)c1 [Example 1-69, N-(3,4-dichlorophenyl)-3-(1H-indol-3-yl)propanamide]",not active
11,"COc1ccc(CNC(=O)Cc2c[nH]c3ccccc23)c(OC)c1 [Example 1-44, N-(2,4-dimethoxybenzyl)-2-(1H-indol-3-yl)acetamide]",54.83%
12,"O=C(Cc1c[nH]c2ccccc12)Nc1ccccc1 [Example 1-23, 2-(1H-indol-3-yl)-N-phenylacetamide]",not active
13,"O=C(Nc1ccc(O)c(O)c1)c1cc2cc(F)ccc2[nH]1 [Example 1-110, N-(3,4-dihydroxyphenyl)-5-fluoro-1H-indole-2-carboxamide]",28.85%
14,"O=C(CCc1c[nH]c2ccccc12)Nc1cccc(Br)c1 [Example 1-64, N-(3-bromophenyl)-3-(1H-indol-3-yl)propanamide]",not active
15,"Cc1cc(C)cc(NC(=O)c2cc3cc(F)ccc3[nH]2)c1 [Example 1-103, N-(3,5-dimethylphenyl)-5-fluoro-1H-indole-2-carboxamide]",75.43%
16,"O=C(Cc1c[nH]c2ccccc12)NCc1cccc(C(F)(F)F)c1 [Example 1-42, 2-(1H-indol-3-yl)-N-(3-(trifluoromethyl)benzyl)acetamide]",34.44%
17,"O=C(Cc1c[nH]c2ccccc12)NCCc1ccccc1 [Example 1-59, 2-(1H-indol-3-yl)-N-phenethylacetamide]",not active
18,"O=C(NCc1ccc(O)c(O)c1)c1cc2cc(F)ccc2[nH]1 [Example 1-111, N-(3,4-dihydroxybenzyl)-5-fluoro-1H-indole-2-carboxamide]",54.41%
19,"COc1ccc(CNC(=O)CCCc2c[nH]c3ccccc23)cc1 [Example 1-81, 4-(1H-indol-3-yl)-N-(4-methoxybenzyl)butanamide]",59.84%
20,"O=C(CCCc1c[nH]c2ccccc12)Nc1cc(C(F)(F)F)cc(C(F)(F)F)c1 [Example 1-77, N-(3,5-bis(trifluoromethyl)phenyl)-4-(1H-indol-3-yl)butanamide]",50.79%
21,"O=C(Cc1c[nH]c2ccccc12)NCc1ccc(Cl)cc1 [Example 1-49, N-(4-chlorobenzyl)-2-(1H-indol-3-yl)acetamide]",59.74%
22,"COc1ccc(COC(=O)CCCc2c[nH]c3ccccc23)cc1 [Example 1-117, 4-methoxybenzyl 4-(1H-indol-3-yl)butanoate]",72.65%
23,"O=C(CCc1c[nH]c2ccccc12)Nc1cc(F)cc(F)c1 [Example 1-66, N-(3,5-difluorophenyl)-3-(1H-indol-3-yl)propanamide]",84.92%

row,Compound,Remaining activity % at 10 μM
1,"O=C(Cc1c[nH]c2ccccc12)NCc1ccccc1F [Example 1-35, N-(2-fluorobenzyl)-2-(1H-indol-3-yl)acetamide]",83.61%
2,"O=C(Nc1cccc(F)c1)c1cc2cc(F)ccc2[nH]1 [Example 1-98, 5-fluoro-N-(3-fluorophenyl)-1H-indole-2-carboxamide]",76.66%
3,"O=C(Cc1c[nH]c2ccccc12)Nc1cc(C(F)(F)F)cc(C(F)(F)F)c1 [Example 1-32, N-(3,5-bis(trifluoromethyl)phenyl)-2-(1H-indol-3-yl)acetamide]",40.95%
4,"CC(C)(C)c1ccc(NC(=O)Cc2c[nH]c3ccccc23)cc1 [Example 1-27, N-(4-tert-butylphenyl)-2-(1H-indol-3-yl)acetamide]",81.22%
5,"O=C(CCc1c[nH]c2ccccc12)Nc1cccc(F)c1 [Example 1-62, N-(3-fluorophenyl)-3-(1H-indol-3-yl)propanamide]",49.36%
6,"COc1ccc(NC(=O)Cc2c[nH]c3ccccc23)cc1 [Example 1-11, 2-(1H-indol-3-yl)-N-(4-methoxyphenyl)acetamide]",not active
7,"O=C(Cc1c[nH]c2ccccc12)NNc1ccc(Br)cc1 [Example 1-55, N′-(4-bromophenyl)-2-(1H-indol-3-yl)acetohydrazide]",77.89%
8,"O=C(Nc1cc(C(F)(F)F)cc(C(F)(F)F)c1)c1cc2cc(C(F)(F)F)ccc2[nH]1 [Example 1-102, N-(3,5-bis(trifluoromethyl)phenyl)-5-(trifluoromethyl)-1H-indole-2-carboxamide]",35.11%
9,"O=C(CCCc1c[nH]c2ccccc12)NCc1ccc(Cl)c(Cl)c1 [Example 1-82, N-(3,4-dichlorobenzyl)-4-(1H-indol-3-yl)butanamide]",94.09%
10,"COC(=O)c1ccc(NC(=O)Cc2c[nH]c3ccccc23)cc1 [Example 1-25, methyl 4-(2-(1H-indol-3-yl)acetamido)benzoate]",66.73%
11,"COC(=O)c1ccc2[nH]c(C(=O)Nc3cc(C(F)(F)F)cc(C(F)(F)F)c3)cc2c1 [Example 1-100, methyl 2-((3,5-bis(trifluoromethyl)phenyl)carbamoyl)-1H-indole-5-carboxylate]",46.12%
12,"O=C(Cc1c[nH]c2ccccc12)Nc1ccccc1Br [Example 1-15, N-(2-bromophenyl)-2-(1H-indol-3-yl)acetamide]",30.42%
13,"O=C(Cc1c[nH]c2ccccc12)Nc1cccc(F)c1 [Example 1-13, N-(3-fluorophenyl)-2-(1H-indol-3-yl)acetamide]",30.28%
14,"CC(C)(C)c1ccc(CNC(=O)Cc2c[nH]c3ccccc23)cc1 [Example 1-41, N-(4-tert-butylbenzyl)-2-(1H-indol-3-yl)acetamide]",59.99%
15,"O=C(CCc1c[nH]c2ccccc12)Nc1ccccc1F [Example 1-61, N-(2-fluorophenyl)-3-(1H-indol-3-yl)propanamide]",45.47%
16,"O=C(Cc1c[nH]c2ccccc12)Nc1ccc(O)cc1 [Example 1-24, N-(4-hydroxyphenyl)-2-(1H-indol-3-yl)acetamide]",not active
17,"C#Cc1ccc(NC(=O)Cc2c[nH]c3ccccc23)cc1 [Example 1-31, N-(4-ethynylphenyl)-2-(1H-indol-3-yl)acetamide]",not active
18,"O=C(CCCc1c[nH]c2ccccc12)Nc1cccc(F)c1 [Example 1-74, N-(3-fluorophenyl)-4-(1H-indol-3-yl)butanamide]",72.65%
19,"O=C(Cc1c[nH]c2ccccc12)NCc1cccnc1 [Example 1-57, 2-(1H-indol-3-yl)-N-(pyridin-3-ylmethyl)acetamide]",not active
20,"O=C(Cc1c[nH]c2ccccc12)NCCc1ccc(Br)cc1 [Example 1-60, N-(4-bromophenethyl)-2-(1H-indol-3-yl)acetamide]",82.15%
21,"O=C(Nc1ccc(Br)cc1)c1c[nH]c2ccccc12 [Example 1-2, N-(4-bromophenyl)-1H-indole-3-carboxamide]",85.52%
22,"O=C(CCCC[C@@H]1SC[C@@H]2NC(=O)N[C@@H]21)NNC(=O)c1ccc2[nH]c(C(=O)Nc3cc(C(F)(F)F)cc(C(F)(F)F)c3)cc2c1 [Example 1-119, N-(3,5-bis(trifluoromethyl)phenyl)-5-(2-(5-((3aS,4S,6aR)-2-oxohexahydro-1H-thieno[3,4-d]imidazol-4-yl)pentanoyl)hydrazine-1-carbonyl)-1H-indole-2-carboxamide]",27.26%

# Same assay, conditions: compound 10 μM, cells without the compound = 100%, 10 µM
row,Compound,Remaining activity % at 10 μM
1,"O=C(NNc1ccc(Cl)c(Cl)c1)c1cc2ccccc2[nH]1 [Example 1-6, N′-(3,4-dichlorophenyl)-1H-indole-2-carbohydrazide]",86.59%

# From patent US20260138949A1, “NOVEL COMPOUND AS PHOSPHOLIPASE D INHIBITOR AND USE THEREOF” (UIF (UNIVERSITY INDUSTRY FOUNDATION), YONSEI UNIVERSITY, priority 2022, published 2026)
